Data set [1] can be described thus: 12 h plasma concentration/time profiles from six clinical studies of transplant patients receiving enteric coated mycophenolate salt (Myfortic). The class given is in vivo, human. The note with it: for AUC(0-t): human, plasma, oral, enteric coated mycophenolate salt (Myfortic), read-out: MPA AUC0-12, mean and SD, measured. The protocol: 334, 12 h plasma concentration/time profiles (217 for de novo and 117 for stable patients) are available from six clinical studies of transplant patients receiving enteric coated composition containing mycophenolate salt (Myfortic®) as part of their immunosuppressive drug regimen. Using 20 randomly selected profiles, population PK models (two-compartment for stable patients and a one-compartment for de novo patients) are developed using a Bayesian approach (i.e. approach to statistics in which estimates are based on a synthesis of a prior distribution and current sample data) to estimate the model parameters. The remaining profiles are used to test and validate the models.

The conditions of data set [2]: immediately post-transplantation; cited from earlier work.

Read-outs that look alike come from different tables or passages of the source.

Turning to `COc1c(C)c2c(c(O)c1C/C=C(\C)CCC(=O)O)C(=O)OC2` [MPA, mycophenolic acid], the “share of de novo patients below lower end of target range for MPA AUC0-12 (30 mg/L·h)” value in data set [1] (fixed dose of 720 mg bid, during the two weeks after transplantation) was found to be 50%. The AUC(0-t) in data set [1] (720 mg bid, de novo patients transplanted within the previous two weeks) is 32200 ± 17500 ng·h/mL; in data set [1] (stable patients) it was 65100 ± 26000 ng·h/mL. Further, the “optimal target MPA AUC0-12 suggested by previous controlled studies” value in data set [2] was about 45000 ng·h/mL.

These data come from US20090327175A1, “PHARMACOKINETIC MODELING OF MYCOPHENOLIC ACID” (priority 2006, published 2009).
